Measurements from patent US20260026499A1 (priority 2022, published 2026).
In brackets after ≈: the same amount, converted by molar mass. Read-outs that look alike come from different tables or passages of the source.

Columns and labels:
Format in all cases: cell-based
Fusarium graminearum [1] = assay: microbe, parasite or virus in culture; conditions: for EC50: Fusarium graminearum, 72 h; for ATI: ZJS178 as standard reagent, B = pydiflumetofen
[2] = test system: tebuconazole-sensitive Fusarium graminearum (TS); assay: microbe, parasite or virus in culture; conditions: for EC50: Fusarium graminearum, 72 h; for Actual Toxicity Index (ATI): ZJS178 as standard reagent, TS strain
Fusarium oxysporum [3] = assay: microbe, parasite or virus in culture; conditions: for EC50: Fusarium oxysporum, 72 h
[4] = test system: F. oxysporum f.sp. lycopersici; conditions: B = azoxystrobin; for ATI: ZJS178 as standard reagent; for EC50: mycelial growth, PDA with 50 μg/mL SHAM, 25° C., 3 days
Experimental: Test object: F. oxysporum f.sp. lycopersici isolated from diseased tomatoes from the field. The tested strains were identified by morphology and pathogenicity, and then stored in the laboratory for future use.
(§1) The above-mentioned F. oxysporum f.sp. lycopersici was inoculated on a PDA medium, and 50 μg/mL salicylhydroxamic acid (SHAM) was added to the culture medium to inhibit the […] bypass respiration.

Fusarium oxysporum [5] = conditions: B = fludioxonil; for EC50: Fusarium oxysporum, 72 h, mycelial growth, PDA, 25° C., 3 days; for ATI: ZJS178 as standard reagent
Text: Test object: Fusarium oxysporum preserved in the laboratory.
(§2) The bioassay method was referred to the description in Example 9.

Fusarium fujikuroi [6] = conditions: B = fludioxonil; for EC50: Fusarium fujikuroi, 72 h, mycelial growth, PDA, 25° C., 3 days; for ATI: ZJS178 as standard reagent
Text: Test object: Fusarium fujikuroi preserved in a culture room of the laboratory.
as §2

Fusarium fujikuroi [7] = assay: microbe, parasite or virus in culture; conditions: for EC50: Fusarium fujikuroi, 72 h
Fusarium graminearum [8] = assay: microbe, parasite or virus in culture; conditions: for ATI: B = prochloraz; for EC50: Fusarium graminearum
Fusarium oxysporum [9] = assay: microbe, parasite or virus in culture
Fusarium moniliforme = conditions: B = pyraclostrobin; for EC50: Fusarium verticillioides, mycelial growth, method of Example 17; for ATI: ZJS178 as standard reagent
Experimental: as §1
Test object: Fusarium moniliforme preserved in a culture room of the laboratory. The bioassay method was referred to the description in Example 17.

[10] = test system: F. oxysporum f.sp. niveum; conditions: for EC50: Fusarium oxysporum, 72 h
[11] = test system: metconazole-sensitive Fusarium fujikuroi(MS); assay: microbe, parasite or virus in culture
[12] = test system: metconazole-resistance Fusarium fujikuroi(MR); assay: microbe, parasite or virus in culture

In the case of CON(C(=O)c1cn(C)nc1C(F)F)C(C)Cc1c(Cl)cc(Cl)cc1Cl (racemic) [Pydiflumetofen, 3-(difluoromethyl)-N-methoxy-1-methyl-N-[(RS)-1-methyl-2-(2,4,6-trichlorophenyl)ethyl]pyrazole-4-carboxamide, reference compound], the EC50 (Fusarium graminearum [1]) is reported as 0.319 mg/L (≈ 0.748 µM) and the ATI (Fusarium graminearum [1]) is reported as 11.88.
CC(C)(C)C(O)(CCc1ccc(Cl)cc1)Cn1cncn1 (racemic) [Tebuconazole (B), (RS)-1-p-chlorophenyl-4,4-dimethyl-3-(1H-1,2,4-triazol-1-ylmethyl)pentan-3-ol, reference compound] was tested, and the EC50 [2] was 0.175 mg/L (≈ 0.567 µM), the “Actual Toxicity Index (ATI)” value [2] was 22.05 and the ATI (Fusarium oxysporum [3]) was 14.46. It also gave an EC50 (Fusarium oxysporum [3]) of 0.276 mg/L (≈ 0.896 µM).
For CO/C=C(/C(=O)OC)c1ccccc1Oc1cc(Oc2ccccc2C#N)ncn1 [Azoxystrobin (B), (E)-methyl 2-{2-[6-(2-cyanophenoxy)pyrimidin-4-yloxy]phenyl}-3-strobilurin, reference compound], the ATI [4] was 5.59 and the EC50 [4] was 0.8247 mg/L.
Compound N#Cc1c[nH]cc1-c1cccc2c1OC(F)(F)O2 [Fludioxonil (B), 4-(2,2-difluoro-1,3-benzodioxol-4-yl) pyrrole-3-carbonitrile, reference compound] has an EC50 (Fusarium oxysporum [5]) of 0.0683 mg/L (≈ 0.275 µM), an ATI (Fusarium oxysporum [5]) of 128.55 and an EC50 (Fusarium fujikuroi [6]) of 0.0529 mg/L (≈ 0.213 µM). It also gave an ATI (Fusarium fujikuroi [6]) of 90.93.
Cc1nn(C)c(F)c1C(=O)Nc1ccccc1C(C)CC(C)C (centres unmarked) [Penflufen (B), 5-fluoro-1,3-dimethyl-N-[2-(4-methylpentan-2-yl)phenyl]-1H-pyrazole-4-carboxamide, reference compound] gave an ATI (Fusarium fujikuroi [7]) of 22.85 and an EC50 (Fusarium fujikuroi [7]) of 0.294 mg/L (≈ 0.925 µM).
Compound CCCN(CCOc1c(Cl)cc(Cl)cc1Cl)C(=O)n1ccnc1 [Prochloraz (B), N-propyl-N-[2-(2,4,6-trichlorophenoxy)ethyl]-imidazole-1-carboxamide, reference compound] has an ATI (Fusarium graminearum [8]) of 11.88 and an EC50 (Fusarium graminearum [8]) of 0.319 mg/L (≈ 0.847 µM).
CCCN(CCOc1c(Cl)cc(Cl)cc1Cl)C(=O)n1ccnc1.CCCN(CCOc1c(Cl)cc(Cl)cc1Cl)C(=O)n1ccnc1.CCCN(CCOc1c(Cl)cc(Cl)cc1Cl)C(=O)n1ccnc1.CCCN(CCOc1c(Cl)cc(Cl)cc1Cl)C(=O)n1ccnc1.[Cl][Mn][Cl] [Prochloraz-manganese chloride, reference compound] showed an ATI (Fusarium oxysporum [9]) of 14.46 and an EC50 (Fusarium oxysporum [9]) of 0.2758 mg/L.
COC(=O)N(OC)c1ccccc1COc1ccn(-c2ccc(Cl)cc2)n1 [Pyraclostrobin (B), methyl N-[2-[[1-(4-chlorophenyl)pyrazol-3-yl]oxymethyl]phenyl]-N-methoxycarbamate, reference compound] gave an EC50 (Fusarium moniliforme) of 4.99 mg/L (≈ 12.9 µM) and an ATI (Fusarium moniliforme) of 13.61.
In the case of COC(=O)NC(=S)Nc1ccccc1NC(=S)NC(=O)OC [Thiophanate-, 1,2-bis (3-carbomethoxy-2-thioureido)benzene, reference compound], the EC50 [10] is reported as 0.222 mg/L (≈ 0.65 µM).
For CCOC(=O)/C(C#N)=C(\N)c1ccc(N(C)CC)cc1 [ZJS178 (A), ethyl 2-cyano-3-amino-3-[4-(N-ethyl-N-methylamino)phenyl]acrylate], the EC50 (Fusarium moniliforme) was 0.678 mg/L (≈ 2.48 µM), the ATI (Fusarium moniliforme) was 100.00 and the ATI [11] was 100.00. For the same compound, the EC50 ([11]; Fusarium fujikuroi, 72 h) was 0.069 mg/L (≈ 0.252 µM), the EC50 (Fusarium oxysporum [5]) was 0.0878 mg/L (≈ 0.321 µM) and the ATI (Fusarium oxysporum [5]) was 100.00. For the same compound, the EC50 (Fusarium graminearum [1]) was 0.0379 mg/L (≈ 0.139 µM), the ATI (Fusarium graminearum [1]) was 100.00 and the ATI (Fusarium fujikuroi [7]) was 100.00. It also gave an EC50 (Fusarium fujikuroi [7]) of 0.0671 mg/L (≈ 0.245 µM), an EC50 ([12]; Fusarium fujikuroi, 72 h) of 0.0621 mg/L (≈ 0.227 µM) and an ATI ([12]; ZJS178 as standard reagent, MR strain) of 100.00. The ATI (Fusarium oxysporum [9]) was 100.00, the EC50 (Fusarium oxysporum [9]; Fusarium oxysporum) was 0.0399 mg/L (≈ 0.146 µM) and the EC50 ([4]; Fusarium oxysporum, 72 h, read-out: EC50) was 0.0461 mg/L. The ATI [4] was 100.00, the ATI (Fusarium graminearum [8]) was 100.00 and the EC50 (Fusarium graminearum [8]) was 0.0379 mg/L (≈ 0.139 µM). It also gave an EC50 (Fusarium fujikuroi [6]) of 0.0481 mg/L (≈ 0.176 µM), an ATI (Fusarium fujikuroi [6]) of 100.00 and an EC50 [10] of 0.0569 mg/L (≈ 0.208 µM). For the same compound, the “Actual Toxicity Index” value ([10]; ZJS178 as standard reagent, B = thiophanate-methyl) was 100.00, the EC50 [2] was 0.0385 mg/L (≈ 0.141 µM) and the “Actual Toxicity Index (ATI)” value [2] was 100.00. For the same compound, the ATI (Fusarium oxysporum [3]) was 100.00 and the EC50 (Fusarium oxysporum [3]) was 0.0399 mg/L (≈ 0.146 µM).
